# Source: patent US10208021B2, “Substituted tetrahydroisoquinoline compounds as factor XIa inhibitors” (BRISTOL-MYERS SQUIBB COMPANY, priority 2011, dated 2019)
# pKi: −log10 of the molar value. Counter-ions that a name gives are not always drawn.
# Target: purified human Factor XIa (Homo sapiens (Human), UniProt P03951)
# Assay: Factor XIa chromogenic substrate (S-2366) inhibition assay
# Format: biochemical
# Conditions: substrate S-2366, Table 1
# Procedure, shortened: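 Ki derived from reaction velocities measured in the presence of inhibitor. Purified protease hydrolysed the chromogenic substrate; rate of absorbance change was followed over 20-180 minutes, depending on the protease.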
# Sequence of purified human Factor XIa (P03951 388-625): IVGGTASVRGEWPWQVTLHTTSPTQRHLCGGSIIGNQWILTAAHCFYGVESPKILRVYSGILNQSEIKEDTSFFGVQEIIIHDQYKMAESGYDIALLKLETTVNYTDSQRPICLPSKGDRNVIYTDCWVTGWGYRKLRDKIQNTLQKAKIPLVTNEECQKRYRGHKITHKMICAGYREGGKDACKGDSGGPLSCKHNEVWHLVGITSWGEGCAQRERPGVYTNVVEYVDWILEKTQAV
# Sequence of purified human Factor XIa (P03951 19-387 partner): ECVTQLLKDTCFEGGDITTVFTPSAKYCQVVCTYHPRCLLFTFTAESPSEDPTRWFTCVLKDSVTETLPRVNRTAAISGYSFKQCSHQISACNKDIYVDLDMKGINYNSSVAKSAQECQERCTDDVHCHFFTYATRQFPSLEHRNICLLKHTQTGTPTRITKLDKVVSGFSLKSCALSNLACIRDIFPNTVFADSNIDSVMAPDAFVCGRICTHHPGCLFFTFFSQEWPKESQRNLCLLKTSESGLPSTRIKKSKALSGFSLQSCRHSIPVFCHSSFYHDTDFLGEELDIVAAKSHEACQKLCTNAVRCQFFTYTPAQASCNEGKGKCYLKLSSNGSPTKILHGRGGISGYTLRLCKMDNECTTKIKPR
row,pKi,Structure (SMILES)
1,7.13,N[C@H]1CC[C@H](NC(=O)C2c3cccc(N4CCC(N5CCCC5)CC4)c3CCN2C(=O)/C=C/c2c(-n3cnnn3)ccc(Cl)c2F)CC1 (mixture of isomers) [Example 235]
2,7.33,CC(C)NC(=O)C1c2cccc(N3CCC(N4CCCC4)CC3)c2CCN1C(=O)/C=C/c1c(-n2cnnn2)ccc(Cl)c1F (racemic) [Example 240]
3,5.98,"CCOC(=O)c1ccc(NC(=O)[C@H]2c3cccc(N4CCN(C)CC4=O)c3CCN2C(=O)/C=C/c2c(-n3cnnn3)ccc(Cl)c2F)cc1 [Example 191, (R,E)-Ethyl 4-(2-(3-(3-chloro-2-fluoro-6-(1H-tetrazol-1-yl)phenyl)acryloyl)-5-(4-methyl-2-oxopiperazin-1-yl)-1,2,3,4-tetrahydroisoquinoline-1-carboxamido)benzoate, TFA Salt]"
4,7.46,CCOC(=O)c1ccc(NC(=O)C2c3cccc(N4CCOCC4)c3CCN2C(=O)/C=C/c2c(-n3cnnn3)ccc(Cl)c2F)cc1 (racemic) [Example 63]

# Same assay, conditions: substrate S-2366, activity ranges, Table A
row,pKi,Structure (SMILES)
1,> 8.30,O=C(O)c1ccc(NC(=O)C2c3cccc(N4CCS(=O)(=O)CC4)c3CCN2C(=O)/C=C/c2c(C(F)(F)F)ccc(Cl)c2F)cc1 (racemic) [Example 225]
2,8.00 to 8.30,O=C(O)c1ccc(NC(=O)C2c3cccc(N4CCC(N5CCCC5)CC4)c3CCN2C(=O)/C=C/c2cccc(Cl)c2Cl)cc1 (racemic) [Example 157]
3,8.00 to 8.30,O=C(O)c1ccc(NC(=O)C2c3cccc(N4CCC(N5CCCC5)CC4)c3CCN2C(=O)/C=C/c2ccccc2F)cc1 (racemic) [Example 181]
4,> 8.30,O=C(O)c1ccc(NC(=O)C2c3cccc(N4CCCCCC4)c3CCN2C(=O)/C=C/c2c(-n3cnnn3)ccc(Cl)c2F)cc1 (racemic) [Example 258]
5,8.00 to 8.30,CC(=O)N1CCN(c2cccc3c2CC(C)(C)N(C(=O)/C=C/c2c(-n4cnnn4)ccc(Cl)c2F)[C@H]3C(=O)Nc2ccc(C(=O)O)cc2)CC1 [Example 205]
6,6.30 to 7.00,O=C(O)CCNC(=O)C1c2cccc(N3CCC(N4CCCC4)CC3)c2CCN1C(=O)/C=C/c1c(-n2cnnn2)ccc(Cl)c1F (racemic) [Example 231]
7,8.00 to 8.30,CCOC(=O)c1ccc(NC(=O)C2c3cccc(N4CCS(=O)(=O)CC4)c3CCN2C(=O)/C=C/c2c(-n3cnnn3)ccc(Cl)c2F)cc1 (racemic) [Example 226]
8,8.00 to 8.30,CCOC(=O)c1ccc(NC(=O)C2c3cccc(N4CC5CN(C)CC5C4)c3CCN2C(=O)C=Cc2c(-n3cnnn3)ccc(Cl)c2F)cc1 (stereo not shown) [Example 253]
9,8.00 to 8.30,CCOC(=O)c1ccc(NC(=O)C2c3cccc(N4CCN(C)CC4)c3CCN2C(=O)C=Cc2c(-n3cnnn3)ccc(Cl)c2F)cc1 (stereo not shown) [compound 29]
10,8.00 to 8.30,CC(=O)c1ccc(Cl)c(F)c1/C=C/C(=O)N1CCc2c(cccc2N2CCCCC2=O)C1C(=O)Nc1ccc(C(=O)O)cc1 (racemic) [compound 38]
11,8.00 to 8.30,O=C(O)c1ccc(NC(=O)C2c3cccc(N4CCC(N5CCCC5)CC4)c3CCN2C(=O)/C=C/c2cccc(Cl)c2)cc1 (racemic) [Example 156]
12,6.30 to 7.00,CC1(C)Cc2c(cccc2N2CCOCC2)[C@H](C(=O)Nc2ccc(C(=O)O)cc2)N1C(=O)/C=C/c1c(-n2cnnn2)ccc(Cl)c1F [Example 200]
13,> 8.30,"CN(C)[C@H]1CCN(c2cccc3c2CCN(C(=O)/C=C/c2c(-n4cnnn4)ccc(Cl)c2F)[C@H]3C(=O)Nc2ccc(C(=O)O)cc2)C1 [Example 208, 4-((R)-2-((E)-3-(3-Chloro-2-fluoro-6-(1H-tetrazol-1-yl)phenyl)acryloyl)-5-((S)-3-(dimethylamino)pyrrolidin-1-yl)-1,2,3,4-tetrahydroisoquinoline-1-carboxamido)benzoic acid, bis-TFA salt]"
14,> 8.30,CN1CCCN(c2cccc3c2CCN(C(=O)C=Cc2c(-n4cnnn4)ccc(Cl)c2F)C3C(=O)Nc2ccc(C(=O)O)cc2)CC1 (stereo not shown) [Example 265]
15,> 8.30,"CN(C)[C@@H]1CCN(c2cccc3c2CCN(C(=O)/C=C/c2c(-n4cnnn4)ccc(Cl)c2F)[C@H]3C(=O)Nc2ccc(C(=O)O)cc2)C1 [Example 209, 4-((R)-2-((E)-3-(3-Chloro-2-fluoro-6-(1H-tetrazol-1-yl)phenyl)acryloyl)-5-((R)-3-(dimethylamino)pyrrolidin-1-yl)-1,2,3,4-tetrahydroisoquinoline-1-carboxamido)benzoic acid, bis TFA salt]"
16,> 8.30,O=C(O)c1ccc(NC(=O)C2c3cccc(N4CCCNCC4)c3CCN2C(=O)/C=C/c2c(-n3cnnn3)ccc(Cl)c2F)cc1 (racemic) [Example 256]
17,8.00 to 8.30,CCOC(=O)c1ccc(NC(=O)[C@@H]2c3cccc(N4CCN(C)CC4)c3CC(C)(C)N2C(=O)/C=C/c2c(-n3cnnn3)ccc(Cl)c2F)cc1 [Example 203]
18,6.30 to 7.00,COCCCNC(=O)C1c2cccc(N3CCC(N4CCCC4)CC3)c2CCN1C(=O)/C=C/c1c(-n2cnnn2)ccc(Cl)c1F (racemic) [Example 229]
19,> 8.30,O=C(O)c1ccc(NC(=O)C2c3cccc(N4CCC5(CC4)OCCO5)c3CCN2C(=O)/C=C/c2c(-n3cnnn3)ccc(Cl)c2F)cc1F (racemic) [Example 255]
20,> 8.30,"CN(C)[C@H]1CCN(c2cccc3c2CCN(C(=O)/C=C/c2c(-n4cnnn4)ccc(Cl)c2F)[C@@H]3C(=O)Nc2ccc(C(=O)O)cc2)C1 [Example 206, 4-((S)-2-((E)-3-(3-Chloro-2-fluoro-6-(1H-tetrazol-1-yl)phenyl)acryloyl)-5-((S)-3-(dimethylamino)pyrrolidin-1-yl)-1,2,3,4-tetrahydroisoquinoline-1-carboxamido)benzoic acid, bis-TFA Salt]"
21,> 8.30,CC(=O)N1CCN(c2cccc3c2CC(C)(C)N(C(=O)/C=C/c2c(-n4cnnn4)ccc(Cl)c2F)[C@@H]3C(=O)Nc2ccc(C(=O)O)cc2)CC1 [Example 204]
22,> 8.30,O=C(O)c1ccc(NC(=O)C2c3cccc(N4CCC(N5CCCC5)CC4)c3CCN2C(=O)/C=C/c2c(O)ccc(Cl)c2F)cc1 (racemic) [Example 162]

# Second part, the compound before the results:
row,Structure (SMILES),pKi
1,O=C(OC1CCCC1)c1ccc(NC(=O)C2c3cccc(N4CCC(N5CCCC5)CC4)c3CCN2C(=O)/C=C/c2c(-n3cnnn3)ccc(Cl)c2F)cc1 (racemic) [Example 124],> 8.30
2,CCOC(=O)c1ccc(NC(=O)C2c3cccc(N4CCC(C(=O)N5CCCC5)CC4)c3CCN2C(=O)/C=C/c2c(-n3cnnn3)ccc(Cl)c2F)cc1 (racemic) [Example 134],> 8.30
3,CN(C)C(=O)C1CCN(c2cccc3c2CCN(C(=O)C=Cc2c(-n4cnnn4)ccc(Cl)c2F)C3C(=O)Nc2ccc(C(=O)O)cc2)CC1 (stereo not shown) [Example 101],> 8.30
4,COC(=O)N1CCN(c2cccc3c2CCN(C(=O)/C=C/c2c(-n4cnnn4)ccc(Cl)c2F)C3C(=O)Nc2ccc(F)cc2)CC1 (stereo not shown) [Example 25],8.00 to 8.30
5,O=C(Nc1ccc(F)cc1)C1c2cccc(N3CCC(N4CCCC4)CC3)c2CCN1C(=O)/C=C/c1c(-n2cnnn2)ccc(Cl)c1F (racemic) [Example 82],> 8.30
6,O=C(NC1CC1)c1ccc(NC(=O)C2c3cccc(N4CCNCC4)c3CCN2C(=O)/C=C/c2cc(Cl)c(F)cc2-n2cnnn2)cc1 (racemic) [Example 67],6.30 to 7.00
7,CC(C)COC(=O)c1ccc(NC(=O)C2c3cccc(N4CCC(N5CCCC5)CC4)c3CCN2C(=O)/C=C/c2c(-n3cnnn3)ccc(Cl)c2F)cc1 (racemic) [Example 123],> 8.30
8,CN(C)C(=O)C1CCN(c2cccc3c2CCN(C(=O)/C=C/c2c(-n4cnnn4)ccc(Cl)c2F)C3C(=O)Nc2ccc(C(=O)O)cc2)CC1 (racemic) [Example 100],> 8.30
9,"CC(=O)c1ccc(Cl)c(F)c1/C=C/C(=O)N1CCc2c(cccc2N2CCN(C)CC2)C1C(=O)Nc1ccc(C(=O)O)cc1 (stereo not shown) [Example 79, (E)-4-(2-(3-(6-acetyl-3-chloro-2-fluorophenyl)acryloyl)-5-(4-methylpiperazin-1-yl)-1,2,3,4-tetrahydroisoquinoline-1-carboxamido)benzoic acid, bis-TFA Salt]",> 8.30
10,O=C(O)c1ccc(NC(=O)C2c3cccc(N4CCC5(CC4)OCCO5)c3CCN2C(=O)/C=C/c2c(-n3cnnn3)ccc(Cl)c2F)cc1 (racemic) [Example 142],> 8.30
11,Cn1ncc2cc(NC(=O)C3c4cccc(N5CCC(N6CCCC6)CC5)c4CCN3C(=O)/C=C/c3c(-n4cnnn4)ccc(Cl)c3F)ccc21 (racemic) [Example 127],> 8.30
12,O=C(Nc1ccc(F)cc1)C1c2cccc(N3CCC(N4CCCC4)CC3)c2CCN1C(=O)C=Cc1c(-n2cnnn2)ccc(Cl)c1F (stereo not shown) [Example 86],> 8.30
13,O=C(O)c1ccc(NC(=O)C2c3cccc(N4CCC(N5CCCCC5=O)CC4)c3CCN2C(=O)/C=C/c2c(-n3cnnn3)ccc(Cl)c2F)cc1 (racemic) [Example 130],> 8.30
14,O=C(O)c1ccc(NC(=O)C2c3cccc(N4CCC(N5CCCC5=O)CC4)c3CCN2C(=O)C=Cc2c(-n3cnnn3)ccc(Cl)c2F)cc1 (stereo not shown) [Example 118],8.00 to 8.30
15,O=C(Nc1ccc(Cl)cc1)C1c2cccc(N3CCC(N4CCCC4)CC3)c2CCN1C(=O)/C=C/c1c(-n2cnnn2)ccc(Cl)c1F (racemic) [Example 104],> 8.30
16,CC1(C(=O)N2CCCC2)CCN(c2cccc3c2CCN(C(=O)/C=C/c2c(-n4cnnn4)ccc(Cl)c2F)C3C(=O)Nc2ccc(C(=O)O)cc2)CC1 (racemic) [Example 152],> 8.30
17,O=C(O)c1ccc(NC(=O)[C@@H]2c3cccc(N4CCC(C(=O)N5CCOCC5)CC4)c3CCN2C(=O)/C=C/c2c(-n3cnnn3)ccc(Cl)c2F)cc1 [Example 141],> 8.30
18,CNC(=O)c1ccc(NC(=O)C2c3cccc(N4CCNCC4)c3CCN2C(=O)/C=C/c2cc(Cl)c(F)cc2-n2cnnn2)cc1 (racemic) [Example 77],6.30 to 7.00
19,CC(C)C1CCN(c2cccc3c2CCN(C(=O)/C=C/c2c(-n4cnnn4)ccc(Cl)c2F)C3C(=O)Nc2ccc(C(=O)O)cc2)CC1 (racemic) [Example 116],> 8.30
20,COC(=O)c1ccc(NC(=O)[C@@H]2c3cccc(N4CCC5(CC4)OCCO5)c3CCN2C(=O)/C=C/c2c(-n3cnnn3)ccc(Cl)c2F)cc1 [Example 144],> 8.30
